Values after ≈ are worked out from the molar mass of the structure shown. Active and inactive are the calls of the source. No cut-off for these calls is given here.

Here are results for 5 compounds from ChEMBL document CHEMBL4842333, “Catechol-Bearing Polyketide Derivatives from Sparticola junci” (2021).

Assay [1] has as its system Mycolicibacterium smegmatis. Briefly: Antimycobacterial activity against Mycobacterium smegmatis ATCC700084 assessed as inhibition of mycobacterial growth by broth microdilution method. Type of assay: functional.
For the next assay, the system named is KB 3-1. Briefly: Cytotoxicity against human KB 3-1 cells assessed as cell growth inhibition incubated for 5 days by MTT assay. Type of assay: functional, cell-based. Particulars: time 5.0 day.
The test system of another assay is Staphylococcus aureus. The assay is described as follows: Antibacterial activity against Staphylococcus aureus DSM346 assessed as inhibition of bacterial growth by broth microdilution method. Type of assay: functional.
The next assay concerns A549. The assay is described as follows: Cytotoxicity against human A549 cells assessed as cell growth inhibition incubated for 5 days by MTT assay. It is filed as functional, cell-based. The following applies: time 5.0 day.
The test system of another assay is SK-OV-3. Briefly: Cytotoxicity against human SK-OV-3 cells assessed as cell growth inhibition incubated for 5 days by MTT assay. Type of assay: functional, cell-based. Particulars: time 5.0 day.
The test system of another assay is L929. Briefly: Cytotoxicity against mouse L929 cells assessed as cell growth inhibition incubated for 5 days by MTT assay. Particulars: time 5.0 day. It is filed as functional, cell-based.
For a further assay, the system named is PC-3. The assay is described as follows: Cytotoxicity against human PC-3 cells assessed as cell growth inhibition incubated for 5 days by MTT assay. It is filed as functional, cell-based. Particulars: time 5.0 day.
A further assay relates to MCF7. The assay is described as follows: Cytotoxicity against human MCF7 cells assessed as cell growth inhibition incubated for 5 days by MTT assay. It is filed as functional, cell-based. The following applies: time 5.0 day.
The test system of another assay is A-431. The assay is described as follows: Cytotoxicity against human A-431 cells assessed as cell growth inhibition incubated for 5 days by MTT assay. It is filed as functional, cell-based. Particulars: time 5.0 day.
Another assay deals with Bacillus subtilis. The assay is described as follows: Antibacterial activity against Bacillus subtilis DSM10 assessed as inhibition of bacterial growth by broth microdilution method. It is filed as functional.
The subject of another assay is Kocuria rhizophila. Briefly: Antibacterial activity against Kocuria rhizophila DSM1790 assessed as inhibition of bacterial growth by broth microdilution method. Type of assay: functional.
Assay [2] concerns Chromobacterium violaceum. The assay is described as follows: Antibacterial activity against Chromobacterium violaceum DSM30191 assessed as inhibition of bacterial growth by broth microdilution method. It is filed as functional.
The test system of the next assay is Escherichia coli. The assay is described as follows: Antibacterial activity against Escherichia coli DSM1116 assessed as inhibition of bacterial growth by broth microdilution method. Type of assay: functional.
A further assay deals with Candida albicans. Briefly: Antifungal activity against Candida albicans DSM1665 assessed as inhibition of fungal growth by broth microdilution method. Type of assay: functional, organism-based.
The next assay has as its system Wickerhamomyces anomalus. Briefly: Antifungal activity against Pichia anomala DSM6766 assessed as inhibition of fungal growth by broth microdilution method. It is filed as functional, organism-based.
Assay [3] deals with Schizosaccharomyces pombe. Briefly: Antifungal activity against Schizosaccharomyces pombe DSM70572 assessed as inhibition of fungal growth by broth microdilution method. It is filed as functional, organism-based.
A further assay deals with Rhodotorula glutinis. The assay is described as follows: Antifungal activity against Rhodotorula glutinis DSM1034 assessed as inhibition of fungal growth by broth microdilution method. It is filed as functional, organism-based.
The subject of another assay is Mucor hiemalis. The assay is described as follows: Antifungal activity against Mucor hiemalis DSM2656 assessed as inhibition of fungal growth by broth microdilution method. Type of assay: functional, organism-based.

As for `NC[C@H]1O[C@H](O[C@H]2[C@H](O)[C@@H](O[C@H]3O[C@H](CO)[C@@H](O)[C@H](N)[C@H]3O)[C@H](N)C[C@@H]2N)[C@H](N)[C@@H](O)[C@@H]1O` [BEKANAMYCIN], the minimal inhibitory concentration (MIC) in assay [1] came to 2.1 µg/mL (≈ 4.34 µM).

As for `O=C(O)C[C@H](O)C1(c2cccc(O)c2O)Oc2cccc3cccc(c23)O1`, the outcome with KB 3-1, in the assay on A549, in the assay with SK-OV-3, in the assay with L929, with PC-3 and in the assay with MCF7 was inactive. In the assay on A-431, the result was inactive. In addition, the MIC in the assay with Staphylococcus aureus was 66.6 µg/mL (≈ 181 µM).

With `CN(C)[C@@H]1C(O)=C(C(N)=O)C(=O)[C@@]2(O)C(O)=C3C(=O)c4c(O)cccc4[C@@](C)(O)[C@H]3[C@H](O)[C@@H]12.Cl` [OXYTETRACYCLINE HYDROCHLORIDE], the MIC turned out to be 4.2 µg/mL in the assay with Bacillus subtilis; 0.4 µg/mL in the assay on Kocuria rhizophila; 0.1 µg/mL in the assay with Staphylococcus aureus; 0.4 µg/mL in assay [2]; 1.7 µg/mL with Escherichia coli.

With `COC(=O)C[C@H](O)C1(c2cccc(O)c2O)Oc2cccc3cccc(c23)O1`, the outcome in the assay on KB 3-1, with A549, with SK-OV-3, in the assay on L929, in the assay with PC-3 and with MCF7 was inactive. Besides, the result with A-431 was inactive. Further, in the assay on Staphylococcus aureus, the minimum inhibitory concentration (MIC) came out at 66.6 µg/mL (≈ 174 µM).

With NYSTATIN, the minimum inhibitory concentration (MIC) with Candida albicans came out at 2.1 µg/mL; in the assay on Wickerhamomyces anomalus it was 2.1 µg/mL; in [3], 16.7 µg/mL; with Rhodotorula glutinis, 1 µg/mL; with Mucor hiemalis, 8.3 µg/mL.
